Source: patent US20120122727A1, “IN VITRO METHOD FOR PREDICTING WHETHER A COMPOUND IS GENOTOXIC IN VIVO” (priority 2009, published 2012)

Legend:
[1] = test system: primary mouse hepatocytes
[2] = test system: primary mouse hepatocytes; assay: Gene expression (Affymetrix Mouse Genome 430 2.0) in primary mouse hepatocytes, true vs false GTX, 24 h and 48 h
[3] = test system: primary mouse hepatocytes; assay: Gene expression in primary mouse hepatocytes, GTX vs non-GTX (four-gene classifier, 24 h)

Mitomycin C [MitC]
Gene expression data AF204959 (Cyp3a25 /// LOC622249) [1]: 0.8169
Gene expression AA561726 average [2]: −4.372
Gene expression AF000969 average [2]: −3.3606
Gene expression AF022072 average [2]: −3.37
Gene expression AF033112 average [2]: 2.219
Gene expression AF055573 average [2]: −2.916
Gene expression AF069954 average [2]: 2.26
Gene expression AF297615 average [2]: 1.841
Gene expression AF335325 average [2]: 1.755
Gene expression AI594683 average [2]: 4.611
Gene expression AI747296 average [2]: −2.056
Gene expression AK005731 average [2]: 6.089
Gene expression AK007854 average [2]: 1.5
Gene expression AK010447 average [2]: −1.6388
Gene expression AK010738 average [2]: 1.98
Gene expression AK014608 average [2]: 2.8746
Gene expression AK017734 average [2]: 1.835
Gene expression AK018383 average [2]: 0.994
Gene expression AK019979 average [2]: −3.757
Gene expression AV095209 average [2]: −2.78
Gene expression AV141095 average [2]: −2.411
Gene expression AV173869 average [2]: −2.2889
Gene expression AV216768 average [2]: −4.149
Gene expression AV219418 average [2]: 4.168
Gene expression AV221299 average [2]: −3.71
Gene expression AV246296 average [2]: 1.4788
Gene expression AV251625 average [2]: 2.477
Gene expression AV254764 average [2]: 1.411
Gene expression AV327248 average [2]: 4.918
Gene expression BB009155 average [2]: 2.9201
Gene expression BB027848 average [2]: 1.879
Gene expression BB043558 average [2]: 2.332
Gene expression BB046347 average [2]: 1.35
Gene expression BB140436 average [2]: −1.601
Gene expression BB204486 average [2]: −4.144
Gene expression BB223872 average [2]: 2.201
Gene expression BB246912 average [2]: −1.866
Gene expression BB275142 average [2]: 2.282
Gene expression BB458460 average [2]: −2.7207
Gene expression BB463610 average [2]: 2.728
Gene expression BB730977 average [2]: −2.36
Gene expression BB743970 average [2]: 3.5588
Gene expression BB770528 average [2]: 2.0332
Gene expression BB781615 average [2]: 0.8952
Gene expression BC003284 average [2]: 2.093
Gene expression BC004827 average [2]: −3.639
Gene expression BC005552 average [2]: −1.342
Gene expression BC006713 average [2]: 1.2958
Gene expression BC010318 average [2]: −1.729
Gene expression BC012247 average [2]: 2.2674
Gene expression BC012955 average [2]: −2.241
Gene expression BC013893 average [2]: 1.864
Gene expression BC017615 average [2]: −3.947
Gene expression BC019379 average [2]: −2.7493
Gene expression BC019882 average [2]: 2.442
Gene expression BC021352 average [2]: 3.121
Gene expression BC022148 average [2]: 2.668
Gene expression BC025169 average [2]: −3.296
Gene expression BC026131 average [2]: −0.9986
Gene expression BC027026 average [2]: 2.873
Gene expression BC027121 average [2]: 2.742
Gene expression BC027185 average [2]: 2.115
Gene expression BE956581 average [2]: 3.68
Gene expression BF719766 average [2]: 2.112
Gene expression BG065754 average [2]: 1.3079
Gene expression BG066491 average [2]: −1.929
Gene expression BG076151 average [2]: 2.5119
Gene expression BG076333 average [2]: −1.87
Gene expression BG797099 average [2]: 2.6244
Gene expression BG967046 average [2]: 1.305
Gene expression BI651416 average [2]: 2.2069
Gene expression BI966443 average [2]: 4.094
Gene expression BM198879 average [2]: 1.928
Gene expression BM200015 average [2]: 1.702
Gene expression BM230508 average [2]: 2.571
Gene expression BM936480 average [2]: 2.006
Gene expression BQ174991 average [2]: −2.777
Gene expression L21027 average [2]: −4.612
Gene expression NM_007556 average [2]: −4.012
Gene expression NM_007980 average [2]: 2.9391
Gene expression NM_007987 average [2]: 2.2406
Gene expression NM_008522 average [2]: 5.9249
Gene expression NM_008935 average [2]: −3.601
Gene expression NM_009897 average [2]: 4.658
Gene expression NM_011075 average [2]: 3.096
Gene expression NM_011176 average [2]: 1.856
Gene expression NM_011316 average [2]: 2.256
Gene expression NM_012006 average [2]: 3.166
Gene expression NM_013642 average [2]: −0.7845
Gene expression NM_013738 average [2]: 2.749
Gene expression NM_013929 average [2]: 2.481
Gene expression NM_018881 average [2]: 2.279
Gene expression NM_019738 average [2]: −2.772
Gene expression NM_030697 average [2]: 3.958
Gene expression NM_053122 average [2]: −4.049
Gene expression NM_134147 average [2]: −2.8471
Gene expression NM_134188 average [2]: 0.4786
Gene expression X62701 average [2]: −1.3159
Gene expression data AF000969 (Cadps2) [2]: −2.406
Gene expression data AF022072 (Grb10) [2]: −3.6802
Gene expression data AF065917 (Lif) [2]: 1.033
Gene expression data AF297615 (Ggta1) [2]: 2.358
Gene expression data AI594683 (Dmn) [2]: 3.671
Gene expression data AI596632 (Ptprg /// LOC632664) [2]: −4.795
Gene expression data AI987929 (Ndrg1) [2]: −3.324
Gene expression data AK004419 (Fbxl17) [2]: −4.0931
Gene expression data AK005731 (1700007K13Rik) [2]: 5.7645
Gene expression data AK007766 (1810044A24Rik) [2]: −2.227
Gene expression data AK007854 (1810053B23Rik) [2]: 2.898
Gene expression data AK009736 (Gpr137b /// LOC664862 /// LOC673335) [2]: −1.056
Gene expression data AK010447 (Smyd3) [2]: −1.439
Gene expression data AK014608 (4632434l11Rik) [2]: 2.3711
Gene expression data AK019979 (2610528E23Rik) [2]: −3.317
Gene expression data AV095209 (Mthfd1l) [2]: −2.454
Gene expression data AV141095 (1110033M05Rik) [2]: −2.287
Gene expression data AV173571 (1700106N22Rik) [2]: −2.287
Gene expression data AV219418 (Ldhb) [2]: 2.873
Gene expression data AV223474 (Zdhhc14) [2]: −2.283
Gene expression data AV298304 (Homez) [2]: 1.9706
Gene expression data AV327248 (Zfp365 /// LOC674611) [2]: 4.258
Gene expression data AV377066 (9130221J18Rik) [2]: 2.462
Gene expression data AW240761 (Tbc1d5) [2]: −2.643
Gene expression data AW543460 (Pard3) [2]: −3.164
Gene expression data AW543723 [2]: 2.3145
Gene expression data AW986246 (Maoa) [2]: −0.2119
Gene expression data BB027848 (4732466D17Rik) [2]: 2.18
Gene expression data BB043558 (9230114K14Rik) [2]: 2.308
Gene expression data BB275142 (AW456874) [2]: 1.944
Gene expression data BB308836 (Ppm1l) [2]: −1.64
Gene expression data BB318221 (Zdhhc14) [2]: −2.706
Gene expression data BB463610 (4632434l11Rik) [2]: 2.535
Gene expression data BB526605 (Mipol1) [2]: −2.035
Gene expression data BB770528 (Rai2) [2]: 2.603
Gene expression data BB821363 (Scfd2) [2]: −2.485
Gene expression data BC004827 (Psat1) [2]: −2.4733
Gene expression data BC008626 (Icam1) [2]: 2.3005
Gene expression data BC010462 (BC010462) [2]: 1.163
Gene expression data BC012247 (Dcxr) [2]: 2.094
Gene expression data BC012260 (Psmf1) [2]: 2.237
Gene expression data BC015270 (Hist2h3c2) [2]: 0.6339
Gene expression data BC016073 (Cdkal1) [2]: −1.963
Gene expression data BC016265 (Ube2e2) [2]: −2.202
Gene expression data BC019882 (Acaa1b) [2]: 3.446
Gene expression data BC025501 (Aaas) [2]: 2.023
Gene expression data BC025837 (Sbk1) [2]: 1.652
Gene expression data BC025915 (Cova1) [2]: −1.619
Gene expression data BC026422 (Tgm1) [2]: 2.651
Gene expression data BF719766 (Thyn1) [2]: 2.045
Gene expression data BG065754 (Ccng1) [2]: 1.179
Gene expression data BG066903 (Kif16b) [2]: −1.047
Gene expression data BG069873 (Gnb1l) [2]: 2.175
Gene expression data BG070887 (Gtdc1) [2]: −2.356
Gene expression data BG076151 (Ppm1d) [2]: 2.238
Gene expression data BG261907 (Large) [2]: −3.876
Gene expression data BI651416 (Cdc42bpg) [2]: 2.482
Gene expression data BI660702 (Ell3) [2]: 3.742
Gene expression data BM198879 (Ercc5) [2]: 2.012
Gene expression data BM230508 (A030007D23Rik) [2]: 2.556
Gene expression data NM_007987 (Fas) [2]: 2.6645
Gene expression data NM_008522 (Ltf) [2]: 3.9908
Gene expression data NM_008576 (Abcc1) [2]: −1.312
Gene expression data NM_011176 (St14) [2]: 2.078
Gene expression data NM_011316 (Saa4) [2]: 2.611
Gene expression data NM_012006 (Acot1) [2]: 3.959
Gene expression data NM_013866 (Zfp385) [2]: 2.3
Gene expression data NM_018770 (Igsf4a) [2]: −2.054
Gene expression data NM_021451 (Pmaip1) [2]: 2.681
Gene expression data NM_025770 (Atg10) [2]: −1.329
Gene expression data NM_028803 (Gbe1) [2]: −1.8898
Gene expression data NM_030697 (Ankrd47) [2]: 3.874
Gene expression data NM_053168 (Trim11) [2]: 1.4821
Gene expression data NM_134188 (Acot2) [2]: −0.06593
Gene expression data Y15910 (Diap2) [2]: −2.813
score 1700007K13RIK [3]: 1
score DDIT4L [3]: 1
score GAS2L3 [3]: 1
score SPC25 [3]: 1
